Reference: the kinase profiling compilation of Christmann-Franck et al. (2016)
Several values for one entry are separate records, joined by “and”; a condition that tells them apart may be missing. Equal values may be shown once.

Experiments:
Assay in all cases: radiometric filter-binding kinase assay, Kinase HotSpot
Details in all cases: compound 0.5 µM; ATP 10 µM
PLK3 (human) = PLK3 (human) (UniProt Q9H4B4)
MAPK14 (human) = MAPK14 (human) (UniProt Q16539)
NEK1 (human) = NEK1 (human) (UniProt Q96PY6)
IRAK4 (human) = IRAK4 (human) (UniProt Q9NWZ3)
PTK6 (human) = PTK6 (human) (UniProt Q13882)
RPS6KA6 KD1 KD2 (human) = RPS6KA6 KD1 KD2 (human) (UniProt Q9UK32)
PHKG1 (human) = PHKG1 (human) (UniProt Q16816)
SRMS (human) = SRMS (human) (UniProt Q9H3Y6)
PDGFRB (human) = PDGFRB (human) (UniProt P09619)
PTK2 (human) = PTK2 (human) (UniProt Q05397)
TTK (human) = TTK (human) (UniProt P33981)
NEK2 (human) = NEK2 (human) (UniProt P51955)
MAPK9 (human) = MAPK9 (human) (UniProt P45984)
NTRK1 (human) = NTRK1 (human) (UniProt P04629)
STK16 (human) = STK16 (human) (UniProt O75716)
SLK (human) = SLK (human) (UniProt Q9H2G2)
EPHB2 (human) = EPHB2 (human) (UniProt P29323)
CDK9 CCNT1 (human) = CDK9 CCNT1 (human) (UniProt P50750+O60563)
MAPK3 (human) = MAPK3 (human) (UniProt P27361)
CLK4 (human) = CLK4 (human) (UniProt Q9HAZ1)
CLK3 (human) = CLK3 (human) (UniProt P49761)
NTRK3 (human) = NTRK3 (human) (UniProt Q16288)
GRK4 (human) = GRK4 (human) (UniProt P32298)
WEE1 (human) = WEE1 (human) (UniProt P30291)
PRKCE (human) = PRKCE (human) (UniProt Q02156)
MAPKAPK2 (human) = MAPKAPK2 (human) (UniProt P49137)
AXL (human) = AXL (human) (UniProt P30530)
MLTK (human) = MLTK (human) (UniProt Q9NYL2)
PRKG2 (human) = PRKG2 (human) (UniProt Q13237)
KIT (human) = KIT (human) (UniProt P10721)
PRKD2 (human) = PRKD2 (human) (UniProt Q9BZL6)
MELK (human) = MELK (human) (UniProt Q14680)
BRSK1 (human) = BRSK1 (human) (UniProt Q8TDC3)
ADRBK2 (human) = ADRBK2 (human) (UniProt P35626)
NTRK2 (human) = NTRK2 (human) (UniProt Q16620)
FGFR3 (human) = FGFR3 (human) (UniProt P22607)
SRC (human) = SRC (human) (UniProt P12931)
LYN (human) = LYN (human) (UniProt P07948)
PAK4 (human) = PAK4 (human) (UniProt O96013)
CSNK1A1 (human) = CSNK1A1 (human) (UniProt P48729)

PRKCE (human), sequence (Q02156 whole entry, looked up): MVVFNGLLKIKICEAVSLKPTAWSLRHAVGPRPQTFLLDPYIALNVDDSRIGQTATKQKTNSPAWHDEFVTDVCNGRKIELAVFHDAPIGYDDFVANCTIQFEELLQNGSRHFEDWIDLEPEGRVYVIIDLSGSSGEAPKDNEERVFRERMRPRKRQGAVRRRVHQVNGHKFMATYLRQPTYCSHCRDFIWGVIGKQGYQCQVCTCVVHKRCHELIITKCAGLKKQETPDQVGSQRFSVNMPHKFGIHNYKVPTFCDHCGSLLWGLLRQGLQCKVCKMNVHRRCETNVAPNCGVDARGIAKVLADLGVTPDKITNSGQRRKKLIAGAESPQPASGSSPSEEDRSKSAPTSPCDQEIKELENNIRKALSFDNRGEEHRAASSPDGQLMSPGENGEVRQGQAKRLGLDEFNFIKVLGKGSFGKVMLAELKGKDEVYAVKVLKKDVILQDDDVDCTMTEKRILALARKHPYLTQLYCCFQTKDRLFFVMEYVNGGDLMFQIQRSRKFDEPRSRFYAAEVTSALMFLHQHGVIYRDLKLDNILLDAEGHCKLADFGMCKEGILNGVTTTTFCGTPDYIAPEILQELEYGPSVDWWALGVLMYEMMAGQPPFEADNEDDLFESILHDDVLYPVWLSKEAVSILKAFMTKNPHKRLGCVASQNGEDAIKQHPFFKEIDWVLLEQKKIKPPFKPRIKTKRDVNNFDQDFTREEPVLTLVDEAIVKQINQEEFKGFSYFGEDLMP
RPS6KA6 KD1 KD2 (human), sequence (Q9UK32 whole entry, looked up): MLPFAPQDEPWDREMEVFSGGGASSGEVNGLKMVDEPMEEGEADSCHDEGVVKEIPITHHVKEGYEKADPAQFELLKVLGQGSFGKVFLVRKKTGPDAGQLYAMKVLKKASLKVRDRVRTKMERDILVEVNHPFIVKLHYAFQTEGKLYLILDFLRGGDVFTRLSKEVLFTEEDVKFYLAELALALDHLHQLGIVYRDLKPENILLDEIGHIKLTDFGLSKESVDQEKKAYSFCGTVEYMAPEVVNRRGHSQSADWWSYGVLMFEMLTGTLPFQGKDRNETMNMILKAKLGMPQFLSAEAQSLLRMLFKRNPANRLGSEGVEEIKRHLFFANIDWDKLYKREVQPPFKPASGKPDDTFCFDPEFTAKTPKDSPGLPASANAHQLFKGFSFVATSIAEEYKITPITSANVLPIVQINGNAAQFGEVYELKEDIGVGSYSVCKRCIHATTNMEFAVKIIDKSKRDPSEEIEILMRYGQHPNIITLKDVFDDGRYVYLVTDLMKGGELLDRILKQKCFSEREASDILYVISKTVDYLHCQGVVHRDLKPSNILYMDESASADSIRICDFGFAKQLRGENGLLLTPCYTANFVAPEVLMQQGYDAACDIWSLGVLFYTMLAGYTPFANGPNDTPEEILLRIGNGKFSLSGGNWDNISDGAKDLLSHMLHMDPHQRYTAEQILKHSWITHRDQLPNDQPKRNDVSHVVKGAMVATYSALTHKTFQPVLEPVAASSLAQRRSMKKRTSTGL
AXL (human), sequence (P30530 whole entry, looked up): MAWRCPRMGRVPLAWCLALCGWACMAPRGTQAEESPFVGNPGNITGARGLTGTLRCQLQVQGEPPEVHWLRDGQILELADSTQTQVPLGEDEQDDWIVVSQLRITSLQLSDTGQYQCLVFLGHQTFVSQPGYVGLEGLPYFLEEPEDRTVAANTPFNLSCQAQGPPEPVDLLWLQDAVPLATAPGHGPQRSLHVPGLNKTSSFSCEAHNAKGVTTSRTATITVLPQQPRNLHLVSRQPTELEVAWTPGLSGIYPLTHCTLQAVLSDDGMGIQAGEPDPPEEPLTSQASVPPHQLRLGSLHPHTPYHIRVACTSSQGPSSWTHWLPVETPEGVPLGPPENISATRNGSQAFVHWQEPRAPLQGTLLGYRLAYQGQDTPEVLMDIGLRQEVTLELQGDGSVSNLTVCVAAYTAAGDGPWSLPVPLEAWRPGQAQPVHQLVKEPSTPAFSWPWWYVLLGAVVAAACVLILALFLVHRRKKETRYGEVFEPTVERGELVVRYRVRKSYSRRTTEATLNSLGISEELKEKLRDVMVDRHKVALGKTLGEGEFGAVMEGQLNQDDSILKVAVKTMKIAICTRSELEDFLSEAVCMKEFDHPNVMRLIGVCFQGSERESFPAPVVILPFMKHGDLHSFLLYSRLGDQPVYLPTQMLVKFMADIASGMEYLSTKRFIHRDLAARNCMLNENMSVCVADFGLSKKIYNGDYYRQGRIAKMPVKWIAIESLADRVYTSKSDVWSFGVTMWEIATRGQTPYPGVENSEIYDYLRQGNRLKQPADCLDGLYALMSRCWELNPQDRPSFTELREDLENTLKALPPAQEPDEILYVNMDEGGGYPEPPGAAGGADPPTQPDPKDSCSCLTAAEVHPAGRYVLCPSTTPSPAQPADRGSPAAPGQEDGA
CLK4 (human), sequence (Q9HAZ1 whole entry, looked up): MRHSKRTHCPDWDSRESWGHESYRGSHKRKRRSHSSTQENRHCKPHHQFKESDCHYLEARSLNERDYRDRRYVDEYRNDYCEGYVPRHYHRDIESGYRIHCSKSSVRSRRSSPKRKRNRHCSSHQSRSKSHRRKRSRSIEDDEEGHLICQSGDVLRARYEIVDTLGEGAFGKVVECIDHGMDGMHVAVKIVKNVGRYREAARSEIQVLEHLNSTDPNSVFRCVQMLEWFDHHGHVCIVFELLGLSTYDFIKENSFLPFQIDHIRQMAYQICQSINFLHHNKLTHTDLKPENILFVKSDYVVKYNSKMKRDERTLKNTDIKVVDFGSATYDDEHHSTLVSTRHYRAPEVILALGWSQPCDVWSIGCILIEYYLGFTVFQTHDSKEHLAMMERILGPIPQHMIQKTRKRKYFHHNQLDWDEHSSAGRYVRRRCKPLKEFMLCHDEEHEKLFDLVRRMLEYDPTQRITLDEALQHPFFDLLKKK
NEK1 (human), sequence (Q96PY6 whole entry, looked up): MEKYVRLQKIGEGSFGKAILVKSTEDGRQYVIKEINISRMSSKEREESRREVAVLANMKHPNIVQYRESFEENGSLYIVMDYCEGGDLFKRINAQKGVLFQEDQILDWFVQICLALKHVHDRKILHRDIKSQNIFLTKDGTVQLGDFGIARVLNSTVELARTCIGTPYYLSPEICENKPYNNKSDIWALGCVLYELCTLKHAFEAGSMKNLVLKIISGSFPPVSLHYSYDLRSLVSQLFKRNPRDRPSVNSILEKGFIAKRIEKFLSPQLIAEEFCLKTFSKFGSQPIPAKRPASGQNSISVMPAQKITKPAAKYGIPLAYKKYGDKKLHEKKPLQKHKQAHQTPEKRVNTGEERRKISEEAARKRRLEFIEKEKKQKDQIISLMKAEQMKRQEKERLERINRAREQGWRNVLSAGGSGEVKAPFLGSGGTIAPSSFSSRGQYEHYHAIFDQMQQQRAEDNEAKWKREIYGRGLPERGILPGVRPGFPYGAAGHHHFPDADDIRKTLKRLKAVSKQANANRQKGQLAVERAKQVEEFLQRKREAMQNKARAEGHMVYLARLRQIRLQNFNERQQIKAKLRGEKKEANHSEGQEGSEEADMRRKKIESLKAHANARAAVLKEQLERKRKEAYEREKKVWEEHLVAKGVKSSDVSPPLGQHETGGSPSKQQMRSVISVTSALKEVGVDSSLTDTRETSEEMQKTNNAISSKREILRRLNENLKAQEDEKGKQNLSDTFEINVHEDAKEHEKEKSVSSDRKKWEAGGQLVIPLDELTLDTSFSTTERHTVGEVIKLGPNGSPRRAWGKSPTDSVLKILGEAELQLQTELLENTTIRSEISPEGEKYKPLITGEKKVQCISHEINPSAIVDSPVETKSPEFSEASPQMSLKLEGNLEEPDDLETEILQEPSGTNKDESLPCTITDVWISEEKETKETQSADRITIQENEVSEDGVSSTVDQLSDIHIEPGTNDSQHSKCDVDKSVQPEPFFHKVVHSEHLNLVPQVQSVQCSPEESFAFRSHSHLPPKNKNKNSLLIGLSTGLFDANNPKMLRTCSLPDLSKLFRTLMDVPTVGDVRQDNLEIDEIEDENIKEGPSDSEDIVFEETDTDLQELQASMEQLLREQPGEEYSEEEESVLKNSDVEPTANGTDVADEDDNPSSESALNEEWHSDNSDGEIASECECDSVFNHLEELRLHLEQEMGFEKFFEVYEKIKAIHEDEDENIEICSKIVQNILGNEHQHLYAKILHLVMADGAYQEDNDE
STK16 (human), sequence (O75716 whole entry, looked up): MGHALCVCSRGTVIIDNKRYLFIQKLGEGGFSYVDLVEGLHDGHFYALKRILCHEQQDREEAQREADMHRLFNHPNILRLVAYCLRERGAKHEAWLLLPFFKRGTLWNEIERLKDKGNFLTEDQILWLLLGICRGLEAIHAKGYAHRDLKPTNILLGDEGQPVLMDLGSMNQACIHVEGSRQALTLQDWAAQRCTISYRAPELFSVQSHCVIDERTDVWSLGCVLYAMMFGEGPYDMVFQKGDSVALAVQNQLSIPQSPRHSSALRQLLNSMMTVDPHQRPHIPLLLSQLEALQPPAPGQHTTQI
IRAK4 (human), sequence (Q9NWZ3 whole entry, looked up): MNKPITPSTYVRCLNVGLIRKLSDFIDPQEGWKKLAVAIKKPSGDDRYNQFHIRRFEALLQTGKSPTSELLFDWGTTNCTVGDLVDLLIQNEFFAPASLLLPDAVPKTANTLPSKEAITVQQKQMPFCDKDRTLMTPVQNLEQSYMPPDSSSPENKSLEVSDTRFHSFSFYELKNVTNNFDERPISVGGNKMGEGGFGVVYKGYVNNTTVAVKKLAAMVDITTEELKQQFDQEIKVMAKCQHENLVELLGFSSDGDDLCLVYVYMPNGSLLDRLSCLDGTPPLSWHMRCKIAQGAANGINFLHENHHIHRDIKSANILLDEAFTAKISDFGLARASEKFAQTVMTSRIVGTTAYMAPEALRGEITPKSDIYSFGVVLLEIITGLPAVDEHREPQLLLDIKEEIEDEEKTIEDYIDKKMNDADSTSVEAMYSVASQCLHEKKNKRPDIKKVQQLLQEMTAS

Structure (SMILES) | residual activity (PLK3 (human)) | residual activity (MAPK14 (human)) | residual activity (NEK1 (human)) | residual activity (IRAK4 (human)) | residual activity (RPS6KA6 KD1 KD2 (human)) | residual activity (PHKG1 (human)) | residual activity (SRMS (human)) | residual activity (PTK2 (human)) | residual activity (TTK (human)) | residual activity (NEK2 (human)) | residual activity (MAPK9 (human)) | residual activity (NTRK1 (human)) | residual activity (STK16 (human)) | residual activity (SLK (human)) | residual activity (EPHB2 (human)) | residual activity (CDK9 CCNT1 (human)) | residual activity (MAPK3 (human)) | residual activity (CLK4 (human)) | residual activity (CLK3 (human)) | residual activity (GRK4 (human)) | also measured
O=S(=O)(c1cccc2cnccc12)N1CCCNCC1 | 102% | 104% | 90.3% | 108% | 94% | 90.8% | 97.5% | 93.9% | 99.1% | 92.3% | 87% | 89.6% | 91.7% | 95.8% | 83.2% | 80.7% | 96.1% | 97.1% | 83.7% | 104% | residual activity (PTK6 (human)): 96.1%; residual activity (PDGFRB (human)): 102%; residual activity (NTRK3 (human)): 85.5%; residual activity (WEE1 (human)): 99.9%; residual activity (PRKCE (human)): 76.5%; residual activity (MAPKAPK2 (human)): 101%; residual activity (AXL (human)): 97.2%; residual activity (MLTK (human)): 101%; residual activity (PRKG2 (human)): 98.9%; residual activity (KIT (human)): 96.7%; residual activity (PRKD2 (human)): 85%; residual activity (MELK (human)): 78.6%; residual activity (BRSK1 (human)): 97.5%; residual activity (ADRBK2 (human)): 100%; residual activity (NTRK2 (human)): 102%; residual activity (FGFR3 (human)): 94.4%; residual activity (SRC (human)): 85.3%; residual activity (LYN (human)): 102% and 106%
c1ccc(-c2n[nH]c3c2oc2ccccc23)cc1 | 99.2% | 102% | 95.2% | 92.7% | 107% | 91.5% | 99.5% | 94.7% | 95.7% | 99.8% | 96.5% | 85.6% | 89.1% | 107% | 83.1% | 83.9% | 87.3% | 98.9% | 91% | 110% | residual activity (PAK4 (human)): 111%; residual activity (CSNK1A1 (human)): 73.8%; residual activity (NTRK3 (human)): 42.7%; residual activity (WEE1 (human)): 92.6%; residual activity (PRKCE (human)): 86%; residual activity (MAPKAPK2 (human)): 99.1%; residual activity (AXL (human)): 101%; residual activity (MLTK (human)): 96.2%; residual activity (PRKG2 (human)): 109%; residual activity (KIT (human)): 38%; residual activity (PRKD2 (human)): 86.9%; residual activity (MELK (human)): 77%; residual activity (BRSK1 (human)): 92.4%; residual activity (ADRBK2 (human)): 119%; residual activity (NTRK2 (human)): 64%; residual activity (FGFR3 (human)): 97.5%; residual activity (SRC (human)): 81.3%; residual activity (LYN (human)): 102% and 108%
COc1ccc(COc2ccc(Cc3cnc(N)nc3N)cc2OC)cc1 | 95.9% | 106% | 95.6% | 110% | 101% | 95.3% | 95.9% | 95.5% | 105% | 99.2% | 106% | 51.3% | 106% | 97.7% | 87.4% | 92.5% | 99.1% | 86.5% | 98.3% | 106% | residual activity (PTK6 (human)): 96.1%; residual activity (PDGFRB (human)): 98.2%; residual activity (PAK4 (human)): 101%; residual activity (CSNK1A1 (human)): 97.9%; residual activity (WEE1 (human)): 90.3%; residual activity (PRKCE (human)): 95.7%; residual activity (MAPKAPK2 (human)): 103%; residual activity (AXL (human)): 96.4%; residual activity (MLTK (human)): 97.4%; residual activity (PRKG2 (human)): 104%; residual activity (KIT (human)): 106%; residual activity (PRKD2 (human)): 99.4%; residual activity (MELK (human)): 102%; residual activity (BRSK1 (human)): 95.6%; residual activity (ADRBK2 (human)): 103%; residual activity (NTRK2 (human)): 31.2%; residual activity (FGFR3 (human)): 105%; residual activity (SRC (human)): 97.9%; residual activity (LYN (human)): 98.1% and 99.9%
